Columns and labels:
Type in all cases: cell-based, C57BL/6 mice
IL-6 mRNA = IL-6 mRNA expression by qPCR in LPS-stimulated peritoneal macrophages; details: test agent 20 μM, LPS (1 g/mL), vs absence of CPZ (FIG. 10)
Procedure: (§1) Peritoneal macrophages from C57BL/6 mice (aged 6 to 8 weeks) were stimulated with LPS ([…]) in the presence or absence of a test agent (20 μM). The relative expression levels of mRNAs of Arid5A, IL-6, and TNF-α were determined in the stimulated peritoneal macrophages by quantitative PCR (qPCR). The expression level of Arid5A mRNA was determined 2 hours after LPS stimulation. The expression levels of IL-6 mRNA and TNF-α mRNA were determined 2 hours, 6 hours, 12 hours, and 24 hours after LPS stimulation. FIGS. 9 to 11 show the results when chlorpromazine (CPZ) was used as a test agent.

Arid5A mRNA = Arid5A mRNA expression by qPCR in LPS-stimulated peritoneal macrophages; details: test agent 20 μM, LPS (1 g/mL), 2 hours after LPS stimulation, vs absence of CPZ (FIG. 9)
Procedure: as §1

TNF-α mRNA = TNF-α mRNA expression by qPCR in LPS-stimulated peritoneal macrophages; details: test agent 20 μM, LPS (1 g/mL), determined 2, 6, 12 and 24 hours after LPS stimulation (FIG. 11)
Procedure: as §1

## CN(C)CCCN1c2ccccc2Sc2ccc(Cl)cc21 [CPZ, chlorpromazine]
IL-6 mRNA; 2 hours after LPS stimulation
  expression of IL-6 mRNA: markedly suppressed
IL-6 mRNA; 6 hours after LPS stimulation
  expression of IL-6 mRNA: markedly suppressed
Arid5A mRNA
  expression of Arid5A mRNA: markedly suppressed
TNF-α mRNA
  expression of TNF-α mRNA: no effect

From patent US11279931B2, “Therapeutic agent for a lung disease and/or method for screening for the same” (Chugai Seiyaku Kabushiki Kaisha, priority 2015, dated 2022)
